Data as given in patent US6262067A, “Polymorphs of a crystalline azo-bicyclo 2,2,2 OCT-3-yl amine dihydrochloride and their pharmaceutical compositions” (priority 2000, dated 2001).
Counter-ions that a name gives are not always drawn. Like-named read-outs stand apart in the source and are kept apart here.

What was measured:
Type in all cases: physicochemical
[1] = Solubility of polymorphs (aqueous intrinsic / aqueous equilibrium solubility)
[2] = Hygroscopicity / water uptake and loss at relative humidity (VTI)
[3] = Thermal water loss and degradation (TGA/DTA, DSC, fusion microscopy)
[4] = Ambient polymorph screen with wet solvents (slurry conversion, relative form stability); settings: for Polymorph Isolated: starting Form I, ambient

COc1ccc(C(C)C)cc1CN[C@H]1C2CCN(CC2)[C@H]1C(c1ccccc1)c1ccccc1 [Form I, (2-Benzhydryl-1-azo-bicyclo 2,2,2oct-3-yl)-(5-isoproyl-2-methoxybenzyl)-amine]
Aqueous Equilibrium ([1]; aqueous): > 1155 mg/mL | solubility in wet THF (in words) ([1]; slurried in THF with >5% H2 O): solubility increases dramatically | solubility ([1]; water, aqueous, intrinsic, read-out: Aqueous Intrinsic Solubility): > 648 mg/mL | hygroscopicity (in words) [2]: nonhydroscopic | VTI (% H2 O absorbed) [2]: 0.8 % wt. | DSC degradation temperature ([3]; DSC): ~ 230 °C | DSC water loss (in words) ([3]; DSC): undetected | TGA/DTA degradation temperature [3]: 194 °C | Fusion Microscopy water loss (in words) ([3]; fusion microscopy): Slow water loss | conversion to Form II in slurry ([4]; THF with about 3% to 5% H2 O): the conversion is to Form II | conversion to Form II in slurry ([4]; THF with less than 2% H2 O): no conversion to Form II | Polymorph Isolated ([4]; Acetone/5% H2 O, slurry): Form II | Polymorph Isolated ([4]; Acetonitrile/5% H2 O, slurry): Form I | Polymorph Isolated ([4]; Ethyl Acetate/3.5% H2 O, slurry): Form II | Polymorph Isolated ([4]; H2 O, solutions seeded with Form II): Form II | Polymorph Isolated ([4]; IPO/5% H2 O, slurry): Form I | Polymorph Isolated ([4]; Tetrahydrofuran/5% H2 O, slurry): Form II

COc1ccc(C(C)C)cc1CN[C@H]1C2CCN(CC2)[C@H]1C(c1ccccc1)c1ccccc1 [Form II, (2-Benzhydryl-1-azo-bicyclo 2,2,2oct-3-yl)-(5-isoproyl-2-methoxybenzyl)-amine]
Aqueous Equilibrium ([1]; aqueous): 395 mg/mL | Aqueous Intrinsic Solubility ([1]; aqueous, intrinsic): < 329 mg/mL | solubility ([1]; medium not stated): 390-400 milligrams per milliliter | VTI (% H2 O absorbed) [2]: 0.4 % wt. | TGA/DTA degradation temperature [3]: 178 °C | Fusion Microscopy water loss (in words) ([3]; fusion microscopy): Sharp water loss | Fusion Microscopy water loss temperature ([3]; fusion microscopy): ~ 100 °C | relative stability of the polymorph ([4]; compared with Form I): lower energy, more stable form than Form I

COc1ccc(C(C)C)cc1CN[C@H]1C2CCN(CC2)[C@H]1C(c1ccccc1)c1ccccc1 [anhydrous dihydrochloride, anhydrous dihydrochloride of (2-Benzhydryl-1-azo-bicyclo 2,2,2oct-3-yl)-(5-isoproyl-2-methoxybenzyl)-amine]
hygroscopicity (in words) [2]: hygroscopic | hygroscopicity (humidity at which hygroscopic and forms dihydrates) ([2]; about 52% humidity or greater): ≥ 52%
